Test results taken from US20260216350A1 (UNIVERSITY OF NOTRE DAME DU LAC, priority 2023, published 2026).

Tests used:
[1] = test system: STZ-induced diabetic mouse model; assay: Determination of functional formulation and dose in STZ mice; settings: unmodified insulin 0.17 mg/kg; complexes 0.17 or 3.5 mg/kg Insulin-DiPBA
Protocol: (§2) STZ Mouse Model. A chemically induce diabetes mouse model were established in male C57BL6/J mice (8 weeks, 25 g, Jackson Laboratory) using streptozotocin (STZ), according to common protocols. Mice were fasted for 4 h prior to injection with STZ at 150 mg/kg i.p., dissolved in pH 4.5 citrate buffer. Treated mice were fasted for an additional 0.5 h and were then supplied with food and water as normal. Treated mice were allowed to develop diabetes for 7 d, and diabetes was verified using handheld blood glucose meters (CVS), targeting unfasted blood glucose level (BGL) above 600 mg/dL.
Mice were challenged with three intraperitoneal glucose tolerance tests (IPGTT).

STZ diabetic mice [2] = assay: In vivo activity verification in overnight-fasted STZ diabetic mice; design: species or system mouse; settings: 0.1 mg/kg s.c.
Protocol: as §2
In Vivo Activity Verification. STZ induced diabetic mice were fasted for 8 h on the eighth day following induction, and mice with BGL>350 mg/dL in their overnight fasted state were randomly divided into groups (n=4/group). […] BGLs for each group were continuously monitored for 6 h after treatment. Mice were fasted during the entire experiment.

[3] = in vivo; cited from earlier work
insulin receptor = insulin receptor (Homo sapiens, UniProt P06213); settings: cited from earlier work
insulin receptor, sequence (P06213 28-758 limits assumed, species assumed): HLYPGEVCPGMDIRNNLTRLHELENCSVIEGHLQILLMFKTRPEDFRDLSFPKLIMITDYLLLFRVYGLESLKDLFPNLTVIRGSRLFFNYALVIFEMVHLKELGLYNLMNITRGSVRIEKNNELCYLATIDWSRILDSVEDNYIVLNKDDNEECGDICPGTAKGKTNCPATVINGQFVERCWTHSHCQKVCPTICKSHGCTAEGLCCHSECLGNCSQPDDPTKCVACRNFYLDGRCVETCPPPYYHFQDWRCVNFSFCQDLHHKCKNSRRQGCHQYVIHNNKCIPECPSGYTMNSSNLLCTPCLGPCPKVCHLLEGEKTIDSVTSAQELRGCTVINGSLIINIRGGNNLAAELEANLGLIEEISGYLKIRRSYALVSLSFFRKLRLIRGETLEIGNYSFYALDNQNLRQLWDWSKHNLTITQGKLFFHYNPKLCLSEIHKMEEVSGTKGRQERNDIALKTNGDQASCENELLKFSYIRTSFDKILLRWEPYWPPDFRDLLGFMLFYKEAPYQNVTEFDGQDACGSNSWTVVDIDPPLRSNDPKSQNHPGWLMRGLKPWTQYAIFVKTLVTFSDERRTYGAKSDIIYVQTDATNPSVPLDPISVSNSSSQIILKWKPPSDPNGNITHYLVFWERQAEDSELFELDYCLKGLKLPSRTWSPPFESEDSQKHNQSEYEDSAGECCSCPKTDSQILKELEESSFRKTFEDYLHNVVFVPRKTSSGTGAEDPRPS
insulin receptor, sequence (P06213 763-1382 partner limits assumed, species assumed): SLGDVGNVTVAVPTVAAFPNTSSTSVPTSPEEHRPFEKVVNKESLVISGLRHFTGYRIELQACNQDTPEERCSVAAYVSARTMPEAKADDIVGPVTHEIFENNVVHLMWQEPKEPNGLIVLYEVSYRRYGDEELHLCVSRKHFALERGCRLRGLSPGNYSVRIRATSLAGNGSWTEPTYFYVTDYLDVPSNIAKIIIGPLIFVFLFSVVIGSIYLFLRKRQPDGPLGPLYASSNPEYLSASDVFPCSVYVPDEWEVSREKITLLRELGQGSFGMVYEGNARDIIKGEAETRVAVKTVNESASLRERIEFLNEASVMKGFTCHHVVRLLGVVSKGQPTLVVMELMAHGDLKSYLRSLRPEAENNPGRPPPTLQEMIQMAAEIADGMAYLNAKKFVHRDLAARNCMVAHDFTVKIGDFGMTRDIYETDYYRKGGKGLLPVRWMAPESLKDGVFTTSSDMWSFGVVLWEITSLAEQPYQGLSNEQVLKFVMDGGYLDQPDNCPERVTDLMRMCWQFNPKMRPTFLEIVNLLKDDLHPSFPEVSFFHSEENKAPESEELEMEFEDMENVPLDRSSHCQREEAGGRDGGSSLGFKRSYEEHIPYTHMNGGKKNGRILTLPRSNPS

[4] = test system: STZ-induced diabetic mice; assay: Multi-day blood glucose control study; format: in vivo, mouse
Protocol: (§1) STZ Mouse Model. […] Specifics of these studies are detailed here:
Multi-Day Blood Glucose Control Study. […] BGL was then monitored for an additional 3 h following IPGTT. Mice were fasted during the entire IPGTT period with free access to water. Mice were fed after IPGTT. At 48 h post treatment, mice were fasted for 5 h followed by an IPGTT challenge for 3 h. Mice were then fed at the end of IPGTT. The IPGTT challenges were repeated on Day 4 and Day 6. Area under the curve (AUC) for each IPGTT cycle was calculated using the trapezoidal rule and statistically analyzed using GraphPad Prism v 9.0.

STZ diabetic mice [5] = assay: Long term blood glucose control study (serial dosing); format: in vivo, mouse
Protocol: as §1
Long term blood glucose control study. Healthy mice were first weighed individually and injected STZ following the above protocol. […] Mice were fed after treatment injection and brought back to their cage on Day 0. […] For all other groups, 48 h post treatment injection, mice were fasted for 5 h to adjust for time since last eating, followed with BGL measurement. The same process was repeated at 96 h following treatment injection. After measurement, mice were weighed individually. Mice were then re-dosed with the same formula every 5 days, collecting BGL at 48 h and 96 h following treatment with a 5 h fast; the process was repeated for one month.

Insulin: recombinant human insulin, unmodified
BGL correction over three IPGTT cycles [1]: failed during the first IPGTT cycle | time after which blood glucose increased (STZ diabetic mice [2]): ~ 120 min

Insulin Glargine
duration of action [3]: 24 to 36 h

Insulin Detemir
insulin receptor binding affinity relative to unmodified insulin (insulin receptor): ~ 25% | blood glucose control with daily administration ([4]; 1 IU/kg daily): did not sustain blood glucose control when this was not combined with overnight fasting | blood glucose level after 3 h, day 0 challenge ([4]; overnight-fasted, complexes 10.4 mg/kg, Insulin Detemir 1 IU/kg): 71 mg/dL | blood glucose throughout 5 weeks of repeat dosing (STZ diabetic mice [5]; complexes every 5 d, 10.4 mg/kg, Insulin Detemir daily 1 IU/kg, 3 h fast): did not provide sustained blood glucose correction | body weight reduction from pre-STZ levels (STZ diabetic mice [5]; daily dosing): ~ 20%
